# Data as given in US20230043204A1, “DIHYDROERGOTAMINE MESYLATE FORMULATIONS AND PRE-FILLED INJECTORS FOR THERAPEUTIC DELIVERY OF THE SAME” (Scienture, Inc., priority 2019, published 2023).
# Counter-ions that a name gives are not always drawn.
# Columns and labels:
# Type in all cases: physicochemical
# [1] = Solubility of DHE in solvents (observation); details: in DMSO, benzyl alcohol, ethanol, propylene glycol, and captisol
# Description: Based on this discovery and the solubility and stability data generated above for various solvents, preservatives, and antioxidants, additional stable formulations are included as non-limiting examples in Table 15. Prophetic formulations are included as non-limiting examples in Tables 16 and 17.
# [2] = 5 mg/mL DHE mesylate stability in solvents suitable for parenteral injection (HPLC); design: Total Impurities Initial: unit not given here; details: for DHE (mg/mL) After 1 Week / Total Impurities After 1 Week: 1 week 40° C. sealed vial
# Method: (§1) The examples herein describe analysis of formulations comprising DHE, and analysis of impurity content. Unless specifically indicated otherwise, analysis was carried out by HPLC according to the parameters in Tables 2-4.
# (§2) Mobile Phase A in Tables 3 and 4 contains 2.75 g of sodium 1-heptane sulfonate in 1000 mL Purified Water, pH adjusted to 2.0 with o-phosphoric acid. Mobile Phase B in Tables 3 and 4 contains 200 mL of Mobile Phase A mixed with 800 mL of acetonitrile.
# Solvents that are suitable for parenteral injections were selected, and solutions of 5 mg/mL DHE mesylate in each (Table 5) were stored at 40° C. in sealed vials. Following 1 week of storage, the remaining amount of DHE was determined by HPLC, indicating solvents compatible with stable DHE storage.
# [3] = HPLC analysis of formulation J after one day of storage at room temperature; details: API sample as comparison
# Method: as §1, §2
# After one day of storage at room temperature, formulation J was analyzed for DHE and impurities, as shown in the last two rows of Table 8. Testing for specific impurities relative to a sample of API (DHE mesylate) yielded the results of Table 9.
# [4] = Stability of formulations L, M, N at accelerated conditions (40° C., sealed vials; HPLC); details: Initial
# Method: as §1, §2
# Additional formulations “L”, “M”, and “N” were prepared according to Table 9 and analyzed for the concentration of DHE and impurities following one day in sealed vials at 40° C. Specific impurities were analyzed after storage in sealed vials after one and two weeks at 40° C. (Table 10).
# [5] = HPLC DHE and specific impurity analysis of formulations O and P on storage; details: 0 Time
# Method: as §1, §2
# The formulation of Table 11 (“P”) was prepared for use in canine studies. An additional formulation was prepared (“O”), replacing DMSO of formula P with an equal amount of propylene glycol.
structure (smiles),measurement,setting,value
"CN1C[C@H](C(=O)N[C@]2(C)O[C@@]3(O)[C@@H]4CCCN4C(=O)[C@H](Cc4ccccc4)N3C2=O)C[C@@H]2c3cccc4[nH]cc(c34)C[C@H]21 [DHE, (5′α)-9,10-dihydro-12′-hydroxy-2′-methyl-5′-(phenylmethyl)-ergotaman-3′,6′,18-trione]",solubility (observation in words),[1],highly soluble
"CN1C[C@H](C(=O)N[C@]2(C)O[C@@]3(O)[C@@H]4CCCN4C(=O)[C@H](Cc4ccccc4)N3C2=O)C[C@@H]2c3cccc4[nH]cc(c34)C[C@H]21 [DHE Mesylate, ergotaman-3′,6′,19-trione, 9,10-dihydro-12′-hydroxy-2′-methyl-5′-(phenylmethyl)-, (5′α)-, monomethane-sulfonate]",DHE (mg/mL) Initial,[2]; 5 mg/mL solution in 15% solution of Kollidon 30,1.7 mg/mL
same,DHE (mg/mL) Initial,"[2]; 5 mg/mL solution in Alcohol, USP",5 mg/mL
same,DHE (mg/mL) Initial,[2]; 5 mg/mL solution in Benzyl Alcohol,4.9 mg/mL
same,DHE (mg/mL) Initial,[2]; 5 mg/mL solution in DMSO,5.1 mg/mL
same,DHE (mg/mL) Initial,"[2]; 5 mg/mL solution in Glycerin, USP",1.3 mg/mL
same,DHE (mg/mL) Initial,[2]; 5 mg/mL solution in Glycerin:Ethanol (1:1),5.1 mg/mL
same,DHE (mg/mL) Initial,"[2]; 5 mg/mL solution in N,N Dimethyl Acetamide",5.1 mg/mL
same,DHE (mg/mL) Initial,[2]; 5 mg/mL solution in N-methyl pyrrolidone,5.1 mg/mL
same,DHE (mg/mL) Initial,[2]; 5 mg/mL solution in PEG 200,4.3 mg/mL
same,DHE (mg/mL) Initial,[2]; 5 mg/mL solution in Propylene Glycol,4.8 mg/mL
same,DHE (mg/mL) Initial,[2]; 5 mg/mL solution in Purified water,4.1 mg/mL
same,DHE (mg/mL) After 1 Week,[2]; 15% solution of Kollidon 30,3.7 mg/mL
same,Total Impurities After 1 Week,[2]; 15% solution of Kollidon 30,9.95
same,Total Impurities Initial,[2]; 15% solution of Kollidon 30,0.24
same,DHE (mg/mL) After 1 Week,"[2]; Alcohol, USP",5 mg/mL
same,Total Impurities After 1 Week,"[2]; Alcohol, USP",0.38
same,Total Impurities Initial,"[2]; Alcohol, USP",0.24
same,DHE (mg/mL) After 1 Week,[2]; Benzyl Alcohol,4.2 mg/mL
same,Total Impurities After 1 Week,[2]; Benzyl Alcohol,2.51
same,Total Impurities Initial,[2]; Benzyl Alcohol,9.58
same,DHE (mg/mL) After 1 Week,[2]; DMSO,5 mg/mL
same,Total Impurities After 1 Week,[2]; DMSO,0.47
same,Total Impurities Initial,[2]; DMSO,0.26
same,DHE (mg/mL) After 1 Week,"[2]; Glycerin, USP",6 mg/mL
same,Total Impurities After 1 Week,"[2]; Glycerin, USP",0.33
same,Total Impurities Initial,"[2]; Glycerin, USP",0.21
same,DHE (mg/mL) After 1 Week,[2]; Glycerin:Ethanol (1:1),5.1 mg/mL
same,Total Impurities After 1 Week,[2]; Glycerin:Ethanol (1:1),0.4
same,Total Impurities Initial,[2]; Glycerin:Ethanol (1:1),0.28
same,DHE (mg/mL) After 1 Week,"[2]; N,N Dimethyl Acetamide",5.4 mg/mL
same,Total Impurities After 1 Week,"[2]; N,N Dimethyl Acetamide",0.8
same,Total Impurities Initial,"[2]; N,N Dimethyl Acetamide",0.13
same,DHE (mg/mL) After 1 Week,[2]; N-methyl pyrrolidone,4.8 mg/mL
same,Total Impurities After 1 Week,[2]; N-methyl pyrrolidone,1.14
same,Total Impurities Initial,[2]; N-methyl pyrrolidone,0.33
same,DHE (mg/mL) After 1 Week,[2]; PEG 200,4.9 mg/mL
same,Total Impurities After 1 Week,[2]; PEG 200,1.36
same,Total Impurities Initial,[2]; PEG 200,0.25
same,DHE (mg/mL) After 1 Week,[2]; Propylene Glycol,5.1 mg/mL
same,Total Impurities After 1 Week,[2]; Propylene Glycol,0.42
same,Total Impurities Initial,[2]; Propylene Glycol,0.26
same,DHE (mg/mL) After 1 Week,[2]; Purified water,4.4 mg/mL
same,Total Impurities After 1 Week,[2]; Purified water,3.5
same,Total Impurities Initial,[2]; Purified water,0.24
same,Total Impurities following 1 day of storage,[3],0.19
same,"impurity peak, RRT 0.75",[3],0.03
same,"impurity peak, RRT 0.84 (Imp-C)",[3],0.02
same,"impurity peak, RRT 0.9",[3],0.03
same,"impurity peak, RRT 1.24",[3],0.11
same,% Total Impurities,[4],0.2%
same,"impurity peak, RRT 0.87",[4],0
same,"impurity peak, RRT 0.92",[4],0.1
same,"impurity peak, RRT 1.22 (Impurity B)",[4],0.1
same,% Total Impurities,[5],0.2%
same,"impurity peak, RRT 0.87",[5],0
same,"impurity peak, RRT 0.92",[5],0.1
same,"impurity peak, RRT 1.21 (Imp-B)",[5],0.1
